Measurements as given in US20240140980A1, “HETEROCYCLIC INHIBITORS OF CD73 FOR TREATMENT OF DISEASE” (Teon Therapeutics, Inc., priority 2022, published 2024).

What follows are compounds tested against CD73 (Homo sapiens (Human), UniProt P21589) (assay: Biochemical CD73 Assay (Malachite Green free phosphate detection)). Settings: recombinant human CD73 2 nM, AMP 40 μM, 45 min at 37° C.
Method: Activity of recombinant CD73 was measured by quantification of free phosphate using the Malachite Green detection system (R&D Systems #DY996). Test compounds were solubilized in DMSO and dispensed into 384-well polystyrene plates in a 8-point 3× titration in duplicates. Then, 10 μL of 4 nM human CD73 enzyme (Novoprotein #C446) in phosphate-free assay buffer (10 mM HEPES, pH 7.4, 125 mM NaCl, 1 mM KCl, 10 mM glucose, 2 mM MgCl2) was added to the plates. The compound and enzyme were incubated for 15 min at RT. Then, 10 μL of 80 μM AMP (Sigma Aldrich #A1752) in the assay buffer was added and the reaction mixture was incubated for 45 min at 37° C. The final concentrations of CD73 and AMP in the reaction were 2 nM and 40 μM, respectively. The reaction was stopped by adding 5 μL of Malachite Green reagent A and incubating for 10 min at RT, followed by addition of 5 μL of Malachite Green reagent B and incubation for 20 min at RT. Absorbance was then read at 620 nm with the Flexstation spectrophotometer (Molecular Devices). The IC50 values were determined using a four-parameter nonlinear regression curve fit.

Sequence of CD73 (P21589 27-574): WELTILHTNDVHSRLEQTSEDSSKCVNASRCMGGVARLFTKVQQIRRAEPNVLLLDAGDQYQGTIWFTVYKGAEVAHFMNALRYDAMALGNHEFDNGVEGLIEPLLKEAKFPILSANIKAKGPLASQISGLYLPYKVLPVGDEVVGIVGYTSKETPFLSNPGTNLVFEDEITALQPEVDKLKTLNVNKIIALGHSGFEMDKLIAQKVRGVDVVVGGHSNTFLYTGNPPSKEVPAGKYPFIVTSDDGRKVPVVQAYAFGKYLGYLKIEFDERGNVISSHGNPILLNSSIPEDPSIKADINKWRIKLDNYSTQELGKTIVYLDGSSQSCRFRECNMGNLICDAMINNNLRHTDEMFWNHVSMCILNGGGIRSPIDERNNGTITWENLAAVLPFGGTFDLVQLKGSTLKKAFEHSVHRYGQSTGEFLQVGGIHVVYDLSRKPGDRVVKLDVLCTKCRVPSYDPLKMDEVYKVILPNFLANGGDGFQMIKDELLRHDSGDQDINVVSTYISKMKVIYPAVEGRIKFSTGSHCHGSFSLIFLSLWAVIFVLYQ

Compound | IC50
COC[C@@](OC[C@H]1O[C@@H](n2ncc3c(NC4CCCC4)nc(Cl)nc32)[C@H](O)[C@@H]1O)(C(=O)N=[S@](C)(=O)NC(=O)c1cnn(C)c1)P(=O)(O)O (single isomer, unassigned) [Example 24] | 2.3 nM
COC[C@](OC[C@H]1O[C@@H](n2ncc3c(NC4CCCC4)nc(Cl)nc32)[C@H](O)[C@@H]1O)(C(=O)N=[S@@](C)(=O)NC(=O)OC)P(=O)(O)O [Example 8, ((R)-2-(((2R,3S,4R,5R)-5-(6-Chloro-4-(cyclopentylamino)-1H-pyrazolo[3,4-d]pyrimidin-1-yl)-3,4-dihydroxytetrahydrofuran-2-yl)methoxy)-3-methoxy-1-(((R)-((methoxycarbonyl)amino)(methyl)(oxo)-λ^6-sulfaneylidene)amino)-1-oxopropan-2-yl)phosphonic Acid] | 879 nM
CNC(=O)N[S@@](C)(=O)=NC(=O)[C@@](COC)(OC[C@H]1O[C@@H](n2ncc3c(NC4CCCC4)cc(Cl)nc32)[C@H](O)[C@@H]1O)P(=O)(O)O [Example 30, ((S)-2-(((2R,3S,4R,5R)-5-(6-chloro-4-(cyclopentylamino)-1H-pyrazolo[3,4-b]pyridin-1-yl)-3,4-dihydroxytetrahydrofuran-2-yl)methoxy)-3-methoxy-1-(((S)-methyl(3-methylureido)(oxo)-λ^6-sulfaneylidene)amino)-1-oxopropan-2-yl)phosphonic Acid] | 0.6 nM
COC[C@@](OC[C@H]1O[C@@H](n2ncc3c(NC4CCCC4)nc(Cl)nc32)[C@H](O)[C@@H]1O)(C(=O)N=[S@](C)(=O)NC(=O)C1COC1)P(=O)(O)O [Example 22, ((2S)-2-(((2R,3S,4R,5R)-5-(6-chloro-4-(cyclopentylamino)-1H-pyrazolo[3,4-d]pyrimidin-1-yl)-3,4-dihydroxytetrahydrofuran-2-yl)methoxy)-3-methoxy-1-((methyl(oxetane-3-carboxamido)(oxo)-λ^6-sulfaneylidene)amino)-1-oxopropan-2-yl)phosphonic Acid] | 0.21 nM
COC[C@@](OC[C@H]1O[C@@H](n2ncc3c(NC4CCCC4)nc(Cl)nc32)[C@H](O)[C@@H]1O)(C(=O)N=[S@](C)(=O)NC(=O)c1ccc(F)cc1)P(=O)(O)O (single isomer, unassigned) [Example 26] | 2.36 nM
COC[C@@](OC[C@H]1O[C@@H](n2ncc3c(NC4CCCC4)nc(Cl)nc32)[C@H](O)[C@@H]1O)(C(=O)N=[S@@](C)(=O)NC(=O)c1cccnc1)P(=O)(O)O [Example 27, ((2S)-2-(((2R,3S,4R,5R)-5-(6-chloro-4-(cyclopentylamino)-1H-pyrazolo[3,4-d]pyrimidin-1-yl)-3,4-dihydroxytetrahydrofuran-2-yl)methoxy)-3-methoxy-1-((methyl(nicotinamido)(oxo)-λ^6-sulfaneylidene)amino)-1-oxopropan-2-yl)phosphonic Acid] | 7.8 nM
COC[C@@](OC[C@H]1O[C@@H](n2ncc3c(NC4CCCC4)cc(Cl)nc32)[C@H](O)[C@@H]1O)(C(=O)N=[S@](C)(=O)NC(=O)C1CC1)P(=O)(O)O [Example 28, ((S)-2-(((2R,3S,4R,5R)-5-(6-chloro-4-(cyclopentylamino)-1H-pyrazolo[3,4-b]pyridin-1-yl)-3,4-dihydroxytetrahydrofuran-2-yl)methoxy)-1-(((S)-cyclopropanecarboxamido(methyl)(oxo)-λ^6-sulfaneylidene)amino)-3-methoxy-1-oxopropan-2-yl)phosphonic Acid] | 1 nM
COC[C@@](OC[C@H]1O[C@@H](n2ncc3c(NC4CCCC4)cc(Cl)nc32)[C@H](O)[C@@H]1O)(C(=O)N=[S@@](C)(=O)NC(C)=O)P(=O)(O)O [Example 31, ((S)-1-(((R)-acetamido(methyl)(oxo)-λ^6-sulfaneylidene)amino)-2-(((2R,3S,4R,5R)-5-(6-chloro-4-(cyclopentylamino)-1H-pyrazolo[3,4-b]pyridin-1-yl)-3,4-dihydroxytetrahydrofuran-2-yl)methoxy)-3-methoxy-1-oxopropan-2-yl)phosphonic Acid] | 0.5 nM
COC[C@@](OC[C@H]1O[C@@H](n2ncc3c(NC4CCCC4)nc(Cl)nc32)[C@H](O)[C@@H]1O)(C(=O)N=[S@@](C)(=O)NC(=O)c1cnn(C)c1)P(=O)(O)O (single isomer, unassigned) [Example 23] | 0.47 nM
COC[C@](OC[C@H]1O[C@@H](n2ncc3c(NC4CCCC4)nc(Cl)nc32)[C@H](O)[C@@H]1O)(C(=O)N=[S@](C)(N)=O)P(=O)(O)O [Example 2, ((2R)-1-((Amino(methyl)(oxo)-λ^6-sulfaneylidene)amino)-2-(((2R,3S,4R,5R)-5-(6-chloro-4-(cyclopentylamino)-1H-pyrazolo[3,4-d]pyrimidin-1-yl)-3,4-dihydroxytetrahydrofuran-2-yl)methoxy)-3-methoxy-1-oxopropan-2-yl)phosphonic Acid] | 19 nM
COC[C@@](OC[C@H]1O[C@@H](n2ncc3c(NC4CCCC4)nc(Cl)nc32)[C@H](O)[C@@H]1O)(C(=O)N=[S@@](C)(=O)NC(=O)c1ccc(F)cc1)P(=O)(O)O (single isomer, unassigned) [Example 25] | 1.13 nM
COC[C@](OC[C@H]1O[C@@H](n2ncc3c(NC4CCCC4)nc(Cl)nc32)[C@H](O)[C@@H]1O)(C(=O)N=[S@@](C)(=O)NC(C)=O)P(=O)(O)O [Example 6, ((R)-1-(((R)-Acetamido(methyl)(oxo)-λ^6-sulfaneylidene)amino)-2-(((2R,3S,4R,5R)-5-(6-chloro-4-(cyclopentylamino)-1H-pyrazolo[3,4-d]pyrimidin-1-yl)-3,4-dihydroxytetrahydrofuran-2-yl)methoxy)-3-methoxy-1-oxopropan-2-yl)phosphonic Acid] | 220 nM
COC[C@@](OC[C@H]1O[C@@H](n2ncc3c(NC4CCCC4)cc(Cl)nc32)[C@H](O)[C@@H]1O)(C(=O)N=[S@](C)(=O)NC(C)=O)P(=O)(O)O [Example 32, ((S)-1-(((S)-acetamido(methyl)(oxo)-λ^6-sulfaneylidene)amino)-2-(((2R,3S,4R,5R)-5-(6-chloro-4-(cyclopentylamino)-1H-pyrazolo[3,4-b]pyridin-1-yl)-3,4-dihydroxytetrahydrofuran-2-yl)methoxy)-3-methoxy-1-oxopropan-2-yl)phosphonic Acid] | 1 nM
CNC(=O)N[S@](C)(=O)=NC(=O)[C@@](COC)(OC[C@H]1O[C@@H](n2ncc3c(NC4CCCC4)cc(Cl)nc32)[C@H](O)[C@@H]1O)P(=O)(O)O [Example 29, ((S)-2-(((2R,3S,4R,5R)-5-(6-chloro-4-(cyclopentylamino)-1H-pyrazolo[3,4-b]pyridin-1-yl)-3,4-dihydroxytetrahydrofuran-2-yl)methoxy)-3-methoxy-1-(((R)-methyl(3-methylureido)(oxo)-λ^6-sulfaneylidene)amino)-1-oxopropan-2-yl)phosphonic Acid] | 10 nM
COC[C@@](OC[C@H]1O[C@@H](n2ncc3c(NC4CCCC4)nc(Cl)nc32)[C@H](O)[C@@H]1O)(C(=O)N=[S@@](C)(=O)NC(C)=O)P(=O)(O)O [Example 5, ((S)-1-(((R)-Acetamido(methyl)(oxo)-λ^6-sulfaneylidene)amino)-2-(((2R,3S,4R,5R)-5-(6-chloro-4-(cyclopentylamino)-1H-pyrazolo[3,4-d]pyrimidin-1-yl)-3,4-dihydroxytetrahydrofuran-2-yl)methoxy)-3-methoxy-1-oxopropan-2-yl)phosphonic Acid] | 1.6 nM
